The values that follow come from publication PMC10254235, “Design, Synthesis, and Anti-Cervical Cancer and Reversal of Tumor Multidrug Resistance Activity of Novel Nitrogen-Containing Heterocyclic Chalcone Derivatives” (Molecules, 2023).

For orientation: IC50 means the midpoint of a concentration-inhibition curve.

In one assay the test system is Bax. As to the kind of experiment: Western blot, Bax in HeLa cells. The class given is cell-based, human. Conditions: HeLa, 2, 4 and 6 μM, 24 h, versus control, p < 0.05. As to the method: (§1) Next, the protein concentrations were determined using a BCA Protein Assay Kit (Solarbio, China). An equal amount of the proteins (12 μg) were separated using 8–12% sodium dodecyl sulfate–polyacrylamide gel electrophoresis (SDS-PAGE) and transferred to nitrocellulose membranes (Amersham Biosciences, Little Chalfont, Buckinghamshire, UK). Then, the membranes were blocked with 5% nonfat dried milk in TBS containing 1% Tween-20 for 2 h at room temperature and were incubated overnight with specific primary antibodies (CST, Boston, MA, USA) at 4 °C. After three washes in TBST, the membranes were incubated with the appropriate HRP-conjugated secondary antibodies at room temperature for 2 h. The blots were developed using enhanced chemiluminescence (Biosharp, Shanghai, China) and were detected using a PE 0723 imager (ProteinSimple, Silicon Valley, CA, USA). Each experiment was performed at least in triplicate and analyzed using Image J software (V1.8.0.112). […]
After incubation, cells were harvested and incubated using […] of Annexin-V/FITC (BD, America) in binding buffer (10 mM HEPES, 140 mM NaCl, and 2.5 mM CaCl2 at pH 7.4) at room temperature for 15 min. […] Almost 10,000 events were collected for each sample and analyzed using flow cytometry (BD, LSRFortessa, New York, NY, USA). […]
(In western blotting, separated proteins are transferred to a membrane and probed.)

Another assay concerns HeLa cells. As to the kind of experiment: Transwell invasion assay (Matrigel). Format: cell-based, human. Conditions: 24 h, control 172. On the procedure:
The transwell ([…], Corning Incorporated, New York, NY, USA) was precoated using 50 μL Matrigel for 5 h at 37 °C to achieve solidification. […] After 24 h of incubation at 37 °C, the invasion cells were fixed using methanol and stained using 0.1% crystal violet for 30 min, respectively. Then, the chambers were washed using PBS and left to dry. Images were photographed using an inverted fluorescence microscope (Leica, Microsystems CMS GmbH, GER) and counted using Image J software (V1.8.0.112) for three independent fields randomly.

The next assay concerns p-PI3K (Tyr458). Briefly: Western blot, p-PI3K in HeLa cells. The class given is cell-based, human. Conditions: HeLa, 2, 4 and 6 μM, 24 h. On the procedure:
as §1

A further assay concerns the target T1, VEGFR-2 (Homo sapiens, UniProt P35968).
T1 construct: endogenous in cells; host or cells: HeLa cells
As to the kind of experiment: VEGFR-2 inhibition test (human p-VEGFR-2 ELISA in HeLa cells). As to conditions: ± SD, read-out: 48h IC50 VEGFR-2 inhibitory effect. Format: cell-based. For orientation: An ELISA detects its analyte on a solid surface through an enzyme-linked reagent.

The subject of a further assay is p-VEGFR-2. Briefly: Western blot, VEGFR-2 phosphorylation in HUVEC cells. Conditions: 24 h, 6f 2, 4, 6 μM, sorafenib 4 μM, versus blank group, p < 0.05. Format: cell-based, human.
The next assay has as its system HUVEC cells. As to the kind of experiment: In vitro HUVEC inhibitory assay (MTT). Conditions: Homo sapiens, 48 h, ± SD. The class given is cell-based. As to the method:
HeLa and SiHa cell lines were obtained from the Procell Life Science Technology Co., Ltd. (Wuhan, China); H8 cell line was obtained from the Shanghai HonSun Biological Technology Co., Ltd. (Shanghai, China); HUVEC cell line was obtained from the Saibaikang (Shanghai) Biotechnology Co., Ltd. (Shanghai, China); HeLa/DDP cell line was obtained from the Guangzhou Jenniobio Biotechnology Co., Ltd. (Guangzhou, China). HeLa, SiHa, H8, and HeLa/DDP cells were cultured in DMEM medium (HyClone). The VEGF of 50 ng/mL was used as the promoter of the VEGFR-2 receptor on HUVEC cell membrane surfaces, and their inhibitory effects on VEGFR-2 were determined. All the mediums were supplemented with 10% FBS (HyClone, GE Healthcare, Australia). Cells were maintained at subconfluency at 37 °C in humidified air containing 5% CO2. The cells were monitored daily and maintained at 80% cell density. All compounds tested were dissolved in DMSO and then diluted by the culture medium before the treatment of cultured cells. Identification reports are available for all types of cell lines involved in this study.
The cytotoxicity of the target compounds were measured in vitro using the MTT assay. Cells grown in the logarithmic phase were counted and seeded in 96-well cell culture plates (5 × 10^3 cells per well) for 24 h to allow attachment of cells to the wall of the plate. […] Next, 20 μL of 5 mg.mL^−1 MTT solution was added to each well and cultured for 4 h. The old solution was discarded, replaced with 150 μL DMSO solution per well, and shaken for 10 min. The OD value was measured under 490 nm, and the inhibition rate was calculated. The nonlinear regression fitting of the cell growth rate was carried out using SPSS 23.0 software, and the IC50 of the compound was calculated. […] There were 6 compound holes in each group, and the experimental results were presented as the average of 3 experiments. A complete medium containing only cells was used as the blank control, whereas a complete medium without cells was the negative control group. Cisplatin and sorafenib were utilized as the positive control group, and the target compound was the experimental intervention group.
After incubation for 24 h, the cell was collected using centrifugation and washed twice using PBS chilled to 0 °C. Then, the cells were homogenized in RIPA lysis buffer and 1% PMSF, 1% mixed phosphatase inhibitor (Solarbio, Beijing, China). The lysates were incubated on ice for 30 min, intermittently vortexed every 5 min, and centrifuged at 12,000 rpm for 20 min to harvest the supernatants.

T1 sequence (P35968 20-1356): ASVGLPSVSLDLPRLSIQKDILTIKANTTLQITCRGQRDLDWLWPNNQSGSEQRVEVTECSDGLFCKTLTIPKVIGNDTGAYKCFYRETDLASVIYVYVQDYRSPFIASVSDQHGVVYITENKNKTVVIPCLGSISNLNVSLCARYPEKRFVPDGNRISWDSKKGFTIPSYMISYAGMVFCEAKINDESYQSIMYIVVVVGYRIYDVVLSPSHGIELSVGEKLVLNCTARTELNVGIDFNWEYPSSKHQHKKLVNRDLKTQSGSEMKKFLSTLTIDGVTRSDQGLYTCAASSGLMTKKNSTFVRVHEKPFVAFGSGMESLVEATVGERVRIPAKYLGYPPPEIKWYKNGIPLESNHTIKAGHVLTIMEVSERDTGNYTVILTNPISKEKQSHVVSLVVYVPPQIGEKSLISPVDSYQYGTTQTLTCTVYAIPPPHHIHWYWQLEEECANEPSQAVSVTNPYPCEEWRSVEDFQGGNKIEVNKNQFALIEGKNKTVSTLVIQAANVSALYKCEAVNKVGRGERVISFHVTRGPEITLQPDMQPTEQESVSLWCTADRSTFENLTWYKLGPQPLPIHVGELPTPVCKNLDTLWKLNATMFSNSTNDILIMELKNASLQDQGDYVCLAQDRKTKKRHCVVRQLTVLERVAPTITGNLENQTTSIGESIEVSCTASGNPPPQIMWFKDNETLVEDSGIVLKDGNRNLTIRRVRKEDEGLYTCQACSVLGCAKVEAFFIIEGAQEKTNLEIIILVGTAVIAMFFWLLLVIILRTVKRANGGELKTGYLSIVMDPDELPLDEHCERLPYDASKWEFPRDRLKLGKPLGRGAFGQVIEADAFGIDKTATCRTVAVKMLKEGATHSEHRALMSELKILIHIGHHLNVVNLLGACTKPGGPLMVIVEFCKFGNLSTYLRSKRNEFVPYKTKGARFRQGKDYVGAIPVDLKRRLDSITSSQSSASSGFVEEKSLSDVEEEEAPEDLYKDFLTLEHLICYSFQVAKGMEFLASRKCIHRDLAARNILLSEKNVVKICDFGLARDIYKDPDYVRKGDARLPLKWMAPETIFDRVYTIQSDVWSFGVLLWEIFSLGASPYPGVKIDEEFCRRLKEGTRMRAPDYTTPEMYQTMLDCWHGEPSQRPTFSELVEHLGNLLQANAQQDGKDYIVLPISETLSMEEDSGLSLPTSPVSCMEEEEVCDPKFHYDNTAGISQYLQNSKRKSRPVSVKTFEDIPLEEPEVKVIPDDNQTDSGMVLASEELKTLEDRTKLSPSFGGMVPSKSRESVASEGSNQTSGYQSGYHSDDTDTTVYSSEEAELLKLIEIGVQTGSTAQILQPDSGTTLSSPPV

As to `COc1cc(O)c(C(=O)/C=C/c2ccc(CN3CCC(C)CC3)cc2)cc1CN1CCC(O)CC1` [6f, (E)-1-(2-hydroxy-5-((4-hydroxypiperidin-1-yl)methyl)-4-methoxyphenyl)-3-(4-((4-methylpiperidin-1-yl)methyl)phenyl)prop-2-en-1-one], the “expression of Bax (Western blot)” value with Bax was “significantly upregulated the expression of Bax”. For the same compound, the “number of invading cells” value in the assay with HeLa cells (2 μM) is 91; in the assay with HeLa cells (4 μM) it was 50; with HeLa cells (6 μM), 35. Moreover, the “p-PI3K (Tyr458) in HeLa cells (Western blot)” value in the assay with p-PI3K (Tyr458) is on record as “effective downregulation”. Besides, the IC50 came out at 750 ± 50 nM on VEGFR-2 and 7.14 ± 0.91 µM in the assay with HUVEC cells. In addition, in the assay with p-VEGFR-2, the “phosphorylation of VEGFR-2 in HUVEC cells (Western blot)” value was “significantly inhibited the phosphorylation of VEGFR-2”.
